We go through 1 molecule from US8039455B2, “Macrocyclic compounds useful as BACE inhibitors” (Novartis AG, priority 2005, dated 2011).

This assay deals with human BACE (Homo sapiens, UniProt P56817). Description: Test 1: Inhibition of Human BACE. Type of assay: biochemical. The source says: Test 1: Inhibition of Human BACE
human BACE, sequence (P56817 46-457 limits assumed): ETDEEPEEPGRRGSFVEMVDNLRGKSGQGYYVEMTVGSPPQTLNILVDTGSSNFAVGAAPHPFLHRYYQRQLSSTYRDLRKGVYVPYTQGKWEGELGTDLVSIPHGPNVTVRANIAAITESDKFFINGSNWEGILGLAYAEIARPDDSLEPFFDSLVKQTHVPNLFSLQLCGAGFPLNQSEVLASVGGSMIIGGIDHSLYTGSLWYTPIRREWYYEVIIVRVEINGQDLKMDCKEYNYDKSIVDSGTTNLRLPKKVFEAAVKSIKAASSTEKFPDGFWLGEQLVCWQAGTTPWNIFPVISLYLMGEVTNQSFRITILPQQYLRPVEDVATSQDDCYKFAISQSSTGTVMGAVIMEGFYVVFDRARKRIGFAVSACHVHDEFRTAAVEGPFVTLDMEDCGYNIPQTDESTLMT

Molecule `CC(=O)c1cc2cc(c1)C(=O)N[C@H]([C@H](O)CNC1(c3cccc(C(C)C)c3)CC1)Cc1cccc(c1)CCCCO2` [Example 5, (S)-18-Acetyl-4-{(R)-1-hydroxy-2-[1-(3-isopropyl-phenyl)-cyclopropylamino]-ethyl}-15-oxa-3-aza-tricyclo[14.3.1.1*6,10*]henicosa-1(20),6,8,10(21),16,18-hexaen-2-one] had an IC50 of 250 nM.

Usually IC50 stands for the midpoint of a concentration-inhibition curve.
